These are literature values, as cited in patent publication US20200316043A1, “PHARMACEUTICAL COMPOSITION COMPRISING CLEVIDIPINE AND PROCESS FOR PREPARATION THEREOF” (Aurobindo Pharma Ltd., priority 2017, published 2020).

The target of data set [1] is ileal and aortic smooth muscle and cardiac muscle (Homo sapiens, UniProt Q13936). To be noted: EDTA treatment of ileal and aortic smooth muscle and cardiac muscle.
Sequence of ileal and aortic smooth muscle and cardiac muscle (Q13936 whole entry): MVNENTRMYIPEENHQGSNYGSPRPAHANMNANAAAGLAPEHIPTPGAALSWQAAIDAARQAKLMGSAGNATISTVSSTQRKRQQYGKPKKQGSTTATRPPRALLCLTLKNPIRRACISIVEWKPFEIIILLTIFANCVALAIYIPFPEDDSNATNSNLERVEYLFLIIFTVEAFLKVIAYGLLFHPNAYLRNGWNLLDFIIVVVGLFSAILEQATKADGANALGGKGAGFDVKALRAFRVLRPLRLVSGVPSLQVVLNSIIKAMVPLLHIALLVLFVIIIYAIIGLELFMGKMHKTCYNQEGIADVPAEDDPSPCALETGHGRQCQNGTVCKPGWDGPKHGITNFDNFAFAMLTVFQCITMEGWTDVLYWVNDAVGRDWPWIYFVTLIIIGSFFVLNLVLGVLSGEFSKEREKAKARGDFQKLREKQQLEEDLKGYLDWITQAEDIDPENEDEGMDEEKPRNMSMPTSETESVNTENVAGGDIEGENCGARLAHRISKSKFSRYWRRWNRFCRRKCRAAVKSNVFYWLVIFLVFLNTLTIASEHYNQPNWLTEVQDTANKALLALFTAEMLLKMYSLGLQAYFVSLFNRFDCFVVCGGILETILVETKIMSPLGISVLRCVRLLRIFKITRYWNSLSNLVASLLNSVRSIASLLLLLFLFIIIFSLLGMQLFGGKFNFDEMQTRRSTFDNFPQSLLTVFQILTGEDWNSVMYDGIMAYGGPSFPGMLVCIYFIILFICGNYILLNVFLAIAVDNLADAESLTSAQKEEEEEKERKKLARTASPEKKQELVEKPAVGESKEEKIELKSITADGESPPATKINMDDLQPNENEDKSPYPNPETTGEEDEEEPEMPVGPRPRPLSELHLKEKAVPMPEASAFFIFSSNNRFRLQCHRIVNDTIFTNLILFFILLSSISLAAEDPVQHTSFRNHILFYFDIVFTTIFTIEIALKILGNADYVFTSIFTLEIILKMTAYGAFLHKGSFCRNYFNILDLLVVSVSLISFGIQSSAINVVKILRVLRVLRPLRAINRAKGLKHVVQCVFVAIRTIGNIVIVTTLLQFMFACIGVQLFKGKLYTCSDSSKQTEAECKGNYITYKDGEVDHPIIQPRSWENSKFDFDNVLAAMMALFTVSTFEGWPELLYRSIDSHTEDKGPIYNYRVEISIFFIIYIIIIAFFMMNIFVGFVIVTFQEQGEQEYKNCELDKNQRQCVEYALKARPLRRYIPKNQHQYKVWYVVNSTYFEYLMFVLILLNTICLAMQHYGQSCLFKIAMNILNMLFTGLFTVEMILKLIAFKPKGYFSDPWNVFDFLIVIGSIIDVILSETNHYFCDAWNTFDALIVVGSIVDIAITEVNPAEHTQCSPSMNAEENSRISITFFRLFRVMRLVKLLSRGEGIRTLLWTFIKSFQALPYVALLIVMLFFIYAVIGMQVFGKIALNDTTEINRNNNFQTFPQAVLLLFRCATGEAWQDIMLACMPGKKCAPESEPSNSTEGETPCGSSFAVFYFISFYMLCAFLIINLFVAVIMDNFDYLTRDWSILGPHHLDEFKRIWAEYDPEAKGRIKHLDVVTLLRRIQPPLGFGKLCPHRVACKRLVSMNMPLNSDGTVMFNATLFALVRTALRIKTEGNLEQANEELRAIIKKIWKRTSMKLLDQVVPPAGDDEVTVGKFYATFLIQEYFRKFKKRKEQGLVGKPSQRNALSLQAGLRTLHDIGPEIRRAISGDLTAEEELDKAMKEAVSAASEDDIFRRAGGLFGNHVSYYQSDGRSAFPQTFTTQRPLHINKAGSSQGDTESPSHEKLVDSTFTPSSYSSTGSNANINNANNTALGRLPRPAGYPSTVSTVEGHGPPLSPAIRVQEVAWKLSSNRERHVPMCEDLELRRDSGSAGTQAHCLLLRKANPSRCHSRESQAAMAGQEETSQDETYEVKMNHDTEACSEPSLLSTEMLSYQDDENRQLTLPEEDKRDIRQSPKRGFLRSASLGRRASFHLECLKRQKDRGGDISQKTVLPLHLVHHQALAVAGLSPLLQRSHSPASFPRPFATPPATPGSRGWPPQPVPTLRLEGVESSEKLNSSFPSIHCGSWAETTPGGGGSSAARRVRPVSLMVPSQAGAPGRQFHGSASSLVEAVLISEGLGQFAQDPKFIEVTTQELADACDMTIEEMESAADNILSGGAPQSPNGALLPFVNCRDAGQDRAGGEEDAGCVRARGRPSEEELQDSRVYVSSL

On to `CCCC(=O)OCOC(=O)C1=C(C)NC(C)=C(C(=O)OC)C1c1cccc(Cl)c1Cl` (stereo not drawn) [Clevidipine, butyroxymethyl methyl 4-(2′,3′dichlorophenyl)-1,4-dihydro-2,6-dimethyl-3,5-pyridinedicarboxylate], for which the solubility in lipids entry is listed as “moderate to high” and the solubility in water result was “low”.

In the case of `O=C(O)CN(CCN(CC(=O)O)CC(=O)O)CC(=O)O` [EDTA, Ethylene Diaminetetraacetic acid], the “reduction of specific [3H] nitrendipine binding” value in data set [1] is on record as 70-95%.
